Structures can show the parent of a compound that is named as a salt.
Experiments:
Type in all cases: in vitro ADME
[1] = Metabolic stability in liver microsomes, Method I, rat
Procedure: The in vitro metabolic stability assay was performed in a 96-well glass plate with shaking incubation at 37° C. A 10 mM DMSO stock solution of the test compound was sequentially diluted 1:1000 to yield a final reaction concentration of 1 μM in 50 mM KPi. […] 30 μL of the 10 μM solution containing the test compound was added to 120 μL of microsomal protein for 150 μL enzyme-compound mixture. The reaction was initiated by adding 150 μL of cofactor solution (2 mM NADPH, 4 mM MgCl in 50 mM KPi) to the enzyme-compound mixture, and the final reaction concentrations are listed in the table below.
At 0, 5, 10 and 30 minute time points in the reaction, reaction aliquots (50 μL) were removed and the reactions were terminated by the addition of acetonitrile (150 μL) containing a mass spectrometry internal standard (1 μM glyburide). The samples were centrifuged and the supernatants analyzed by LC-MS/MS for quantization of remaining compound. […]
Mobile phase A consisted of purified water containing 0.01% formic acid. […] Compounds were detected using the Thermo QuikQuan software which collects intensity data for all fragments related to the molecular weight of the test compound. […]

[2] = Metabolic stability in liver microsomes, Method II, human
Procedure: Determination of Metabolic Stability in Liver Microsomes—Method II
The in vitro metabolic stability assay was performed in a 96-deep-well plate with incubation at 37° C. 10 mM DMSO stock solution of the test compound was diluted 1:20 in acetonitrile, followed by an additional 1:10 dilution in 100 mM potassium phosphate buffer (KPi) to yield a final reaction concentration of 1 μM. Immediately prior to the start of the experiment, respective animal or human liver microsomes (male Sprague-dawley rat, male CD-1 mouse, or pooled human liver microsomes) were diluted in 100 mM KPi to 1.25 mg/mL liver microsomal protein. 290 μL of cofactor solution (1.7 mM NADPH, 1.7 mM UDPGA, 3.4 mM MgCl in 100 mM KPi) was added to 200 μL of microsomal protein for a final volume of 490 μL. The reaction was initiated by adding 10 μL of the 50 μM test solution to 490 μL of microsomal protein for a final volume 500 μL enzyme-compound mixture.
At 0, 5, 15 and 30 minute time points in the reaction, reaction aliquots (75 μL) were removed and the reactions were terminated by the addition of 50:50 acetonitrile/methanol solution (75 μL) containing a mass spectrometry internal standard (0.5 μM glyburide). The samples were centrifuged at 4000 RPM for 10 minutes. Supernatants (15 μL aliquots) were transferred to a new plate where each well contains 90 μL of deionized water. The supernatants solution were analyzed by UPLC/MS/MS for quantitation of parent remaining compound under multiple reactions monitoring mode (MRM) in positive mode. The percentage of compound remaining, relative to 0 minutes, was used to estimate in vitro elimination-rate constant (k) which was used to calculate in vitro metabolic clearance rates.
Analysis of the samples was performed on an ultra-performance liquid chromatography-tandem mass spectrometry (UPLC/MS/MS) system consisting of an AB Sciex Qtrap 5500 mass spectrometer, AB Sciex Turbo V ion source, Waters Acquity Sample Organizer, Waters Acquity Column manager, Waters Acquity Sample manager, and a Waters Acquity Binary Solvent Manager. Chromatographic separation of analyte and internal standard was achieved using a reverse phase C-18 column (50×2.1 mm, 1.7 μm, Acquity UPLC BEH C-18) with the following UPLC mobile phases and elution gradient: […]
UPLC mobile phase A: 0.25% formic acid in 5% methanol; mobile phase B: 0.25% formic acid in […].
LC gradient and flow rate are listed below: […]
The injection volume was 5 μL. Compounds were detected using Analyst 1.5.1 software which collects intensity data for all fragments related to the molecular weight of the test compound. After collection of the raw data, the software identifies and integrates the peak of the strongest intensity.
Each microsomal elimination rate, k, was based on a 4-point elimination curve tested in duplicates. LC-MS/MS raw data for a reaction plate was returned as integrated analyte peak areas for the test compound and internal standard used in the quench solution for the reaction to enable use of analyte:internal standard peak area ratios (PARs) for all data comparisons. The reaction time point (e.g. 0, 5, 15 and 30 minutes) was plotted versus the natural logarithm of percent test compound remaining relative to 0 minutes (based on relative PAR). The slope of this clearance plot, k, was used to calculate the in vitro half-life.
[formula] The intrinsic clearance value, CLint (expressed as μL/min/mg microsomal protein) calculation is shown below:
[formula] […]

[3] = Metabolic stability in liver microsomes, Method II, mouse
Procedure: The in vitro metabolic stability assay was performed in a 96-deep-well plate with incubation at 37° C. 10 mM DMSO stock solution of the test compound was diluted 1:20 in acetonitrile, followed by an additional 1:10 dilution in 100 mM potassium phosphate buffer (KPi) to yield a final reaction concentration of 1 μM. […] 290 μL of cofactor solution (1.7 mM NADPH, 1.7 mM UDPGA, 3.4 mM MgCl in 100 mM KPi) was added to 200 μL of microsomal protein for a final volume of 490 μL. The reaction was initiated by adding 10 μL of the 50 μM test solution to 490 μL of microsomal protein for a final volume 500 μL enzyme-compound mixture.
UPLC mobile phase A: 0.25% formic acid in 5% methanol; mobile phase B: 0.25% formic acid in 95% water.
Each microsomal elimination rate, k, was based on a 4-point elimination curve tested in duplicates. LC-MS/MS raw data for a reaction plate was returned as integrated analyte peak areas for the test compound and internal standard used in the quench solution for the reaction to enable use of analyte:internal standard peak area ratios (PARs) for all data comparisons. […]
[formula] The intrinsic clearance value, CLint (expressed as μL/min/mg microsomal protein) calculation is shown below: […]

## C[C@H](Nc1nccc(N2C(=O)OCC2[C@H](C)F)n1)c1cn(-c2ccc(C(F)F)cc2)cn1 (stereo partly shown) [456 as TFA salt]
[1]
  Rat microsomal stability CLint: 44.66 µL/min/mg
[2]
  Human microsomal stability CLint: 16.79 µL/min/mg

## C[C@H](Nc1nccc(N2C(=O)OC[C@@H]2[C@@H](C)N)n1)c1cnc(-c2ccc(Cl)cc2)s1 [Example 380, (S)-4-((R)-1-aminoethyl)-3-(2-(((S)-1-(2-(4-chlorophenyl)thiazol-5-yl)ethyl)amino)pyrimidin-4-yl)oxazolidin-2-one]
[3]
  Mouse microsomal stability CLint: 51.00 µL/min/mg
[2]
  Human microsomal stability CLint: 31.15 µL/min/mg

## C[C@H](Nc1nccc(N2C(=O)OC[C@@H]2[C@H](C)F)n1)c1cn(-c2ccc(F)cc2)cn1 [Example 401, (R)-4-((S)-1-fluoroethyl)-3-(2-(((S)-1-(1-(4-fluorophenyl)-1H-imidazol-4-yl)ethyl)amino)pyrimidin-4-yl)oxazolidin-2-one]
[3]
  Mouse microsomal stability CLint: 33.13 µL/min/mg
[2]
  Human microsomal stability CLint: <7.70 µL/min/mg

## C[C@H](Nc1nccc(N2C(=O)OC[C@@H]2CF)n1)c1cn(-c2ccc(Cl)cc2)cn1 [Example 404, (R)-3-(2-(((S)-1-(1-(4-chlorophenyl)-1H-imidazol-4-yl)ethyl)amino)pyrimidin-4-yl)-4-(fluoromethyl)oxazolidin-2-one]
[3]
  Mouse microsomal stability CLint: 18.72 µL/min/mg
[2]
  Human microsomal stability CLint: <7.70 µL/min/mg

## C[C@H](Nc1nccc(N2C(=O)OC[C@@H]2[C@H](C)F)n1)c1ncc(-c2ccnc(C(F)(F)F)c2)cc1F [Example 463, (R)-3-(2-(((S)-1-(5-fluoro-2′-(trifluoromethyl)-[3,4′-bipyridin]-6-yl)ethyl)amino)pyrimidin-4-yl)-4-((S)-1-fluoroethyl)oxazolidin-2-one]
[3]
  Mouse microsomal stability CLint: 35.45 µL/min/mg
[2]
  Human microsomal stability CLint: 28.27 µL/min/mg

Source: patent US10112931B2, “3-pyrimidin-4-yl-oxazolidin-2-ones as inhibitors of mutant IDH” (NOVARTIS AG, priority 2013, dated 2018)
